From ChEMBL document CHEMBL1201862, “PubChem BioAssay data set” (2004)
The source made the active and inactive calls.

How the values were obtained:
[1] = target: Albumin (Bos taurus, UniProt P02769); assay: Counterscreen for inhibitors of T-cell receptor (TCR)-CD3 interaction: Fluorescence-based biochemical high throughput dose response assay to identify inhibitors of T-cell receptor (TCR)-CD3 interaction using a TAMRA-labeled BSA probe.; type: functional
[2] = target: T1, RNA-binding protein pos-1 (Caenorhabditis elegans, UniProt G5EF15); assay: disruptors of C. elegans POS-1 RNA interaction – biochemical, fluorescence polarization, dose response (AID 1964);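 note: purified POS-1 fused to maltose binding protein made in E. coli; potency of compounds blocking POS-1 binding to fluorescent RNA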
T1 sequence (G5EF15 whole entry): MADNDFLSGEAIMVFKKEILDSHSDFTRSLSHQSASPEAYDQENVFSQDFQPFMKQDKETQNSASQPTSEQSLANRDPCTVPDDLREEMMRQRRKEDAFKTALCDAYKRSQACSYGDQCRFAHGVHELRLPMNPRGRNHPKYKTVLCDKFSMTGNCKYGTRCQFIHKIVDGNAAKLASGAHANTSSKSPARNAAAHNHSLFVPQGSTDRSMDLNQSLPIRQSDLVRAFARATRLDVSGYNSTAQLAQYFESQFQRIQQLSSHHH

[3] = cells; type: functional, cell-based
[4] = target: T2, Zinc finger protein mex-5 (Caenorhabditis elegans, UniProt Q9XUB2); assay: potency of MEX-5 RNA-binding blockers – biochemical, C. elegans, fluorescence polarization, dose response (AID 1960)
T2 sequence (Q9XUB2 whole entry): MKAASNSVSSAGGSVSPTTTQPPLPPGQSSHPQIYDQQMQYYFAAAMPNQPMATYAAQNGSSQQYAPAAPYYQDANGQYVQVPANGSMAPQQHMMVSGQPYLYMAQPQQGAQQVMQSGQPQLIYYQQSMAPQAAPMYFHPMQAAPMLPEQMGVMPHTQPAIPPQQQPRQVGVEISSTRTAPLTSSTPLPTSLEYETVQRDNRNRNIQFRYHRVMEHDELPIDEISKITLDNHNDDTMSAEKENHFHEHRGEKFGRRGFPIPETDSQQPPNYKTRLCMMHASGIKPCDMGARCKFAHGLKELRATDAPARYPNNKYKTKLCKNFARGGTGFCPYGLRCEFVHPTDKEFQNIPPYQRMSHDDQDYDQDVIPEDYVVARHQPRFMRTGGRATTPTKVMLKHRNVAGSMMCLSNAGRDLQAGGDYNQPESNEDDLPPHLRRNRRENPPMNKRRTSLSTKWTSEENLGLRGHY

[5] = target: Large T antigen (Simian virus 40, UniProt P03070); type: functional, Betapolyomavirus macacae;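 note: Confirmatory-stage PubChem screen for compounds that inhibit SV40 T antigen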
Chain of Large T antigen (P03070 whole entry): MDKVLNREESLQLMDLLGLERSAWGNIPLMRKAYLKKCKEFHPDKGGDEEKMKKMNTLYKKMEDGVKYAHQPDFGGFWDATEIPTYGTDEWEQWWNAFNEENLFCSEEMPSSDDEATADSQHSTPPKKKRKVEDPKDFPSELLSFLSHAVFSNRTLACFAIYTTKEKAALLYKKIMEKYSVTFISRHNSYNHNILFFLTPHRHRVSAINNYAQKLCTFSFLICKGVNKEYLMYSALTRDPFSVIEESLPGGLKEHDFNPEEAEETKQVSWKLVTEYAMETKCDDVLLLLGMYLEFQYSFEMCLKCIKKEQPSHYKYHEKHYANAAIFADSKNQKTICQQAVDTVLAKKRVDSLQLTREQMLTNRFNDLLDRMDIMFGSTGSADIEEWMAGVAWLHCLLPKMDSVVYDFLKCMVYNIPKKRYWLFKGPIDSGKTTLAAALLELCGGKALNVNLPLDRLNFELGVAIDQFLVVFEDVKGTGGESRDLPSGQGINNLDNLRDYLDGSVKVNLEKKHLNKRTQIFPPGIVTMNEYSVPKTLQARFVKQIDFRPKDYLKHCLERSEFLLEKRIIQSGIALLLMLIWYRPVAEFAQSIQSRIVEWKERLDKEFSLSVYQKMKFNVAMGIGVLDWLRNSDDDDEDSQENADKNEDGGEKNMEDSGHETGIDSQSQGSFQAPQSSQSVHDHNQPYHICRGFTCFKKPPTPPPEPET

[6] = cells; type: functional, cell-based; remark: listed apart in the source
[7] = target: FAD-linked sulfhydryl oxidase ALR (Homo sapiens, UniProt P55789); assay: ALR-catalysed DTT oxidation blockers – biochemical, H2O2 detection, luminescence, cherry-pick, dose response (AID 493248)
Chain of FAD-linked sulfhydryl oxidase ALR (P55789 whole entry): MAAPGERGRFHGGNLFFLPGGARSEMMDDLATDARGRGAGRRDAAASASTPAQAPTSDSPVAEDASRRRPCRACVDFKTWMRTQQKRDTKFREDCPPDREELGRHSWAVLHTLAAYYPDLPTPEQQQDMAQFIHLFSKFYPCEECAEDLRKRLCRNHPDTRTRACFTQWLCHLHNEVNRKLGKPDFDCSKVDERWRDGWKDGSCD

[8] = reduction of Shn3 3'UTR-driven luciferase in osteoblasts – cell-based, Clone20 osteoblasts, firefly luciferase, cherry-picked, dose response (AID 624132); type: functional;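 note: firefly luciferase luminescence from reporter carrying the Shn3 3'UTR in osteoblasts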
[9] = non-specific 3'UTR reporter inhibition in Clone20-Shn3RL – cell-based, Renilla luciferase, cherry-picked, counter-screen for Shn3 inhibitor project, dose response (AID 624133); type: functional
[10] = target: T3, Caspase-3 (Homo sapiens, UniProt P42574); type: functional;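 note: Dose-response selectivity test against caspase-3 for candidate inhibitors of sentrin-specific proteases (SENPs)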
T3 sequence (P42574 whole entry): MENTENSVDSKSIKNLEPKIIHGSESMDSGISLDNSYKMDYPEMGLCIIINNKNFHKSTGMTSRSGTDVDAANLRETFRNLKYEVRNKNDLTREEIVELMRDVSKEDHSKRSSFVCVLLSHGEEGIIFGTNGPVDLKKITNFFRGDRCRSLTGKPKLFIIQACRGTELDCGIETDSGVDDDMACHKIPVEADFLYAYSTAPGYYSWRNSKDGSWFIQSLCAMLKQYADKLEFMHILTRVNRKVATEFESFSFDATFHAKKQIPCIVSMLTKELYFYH

[11] = target: T4, Sentrin-specific protease 7 (Homo sapiens, UniProt Q9BQF6); type: functional;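 note: Luminescence-based dose-response confirmation of ultra-high-throughput screening hits, measuring inhibition of SENP7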
T4 sequence (Q9BQF6 whole entry): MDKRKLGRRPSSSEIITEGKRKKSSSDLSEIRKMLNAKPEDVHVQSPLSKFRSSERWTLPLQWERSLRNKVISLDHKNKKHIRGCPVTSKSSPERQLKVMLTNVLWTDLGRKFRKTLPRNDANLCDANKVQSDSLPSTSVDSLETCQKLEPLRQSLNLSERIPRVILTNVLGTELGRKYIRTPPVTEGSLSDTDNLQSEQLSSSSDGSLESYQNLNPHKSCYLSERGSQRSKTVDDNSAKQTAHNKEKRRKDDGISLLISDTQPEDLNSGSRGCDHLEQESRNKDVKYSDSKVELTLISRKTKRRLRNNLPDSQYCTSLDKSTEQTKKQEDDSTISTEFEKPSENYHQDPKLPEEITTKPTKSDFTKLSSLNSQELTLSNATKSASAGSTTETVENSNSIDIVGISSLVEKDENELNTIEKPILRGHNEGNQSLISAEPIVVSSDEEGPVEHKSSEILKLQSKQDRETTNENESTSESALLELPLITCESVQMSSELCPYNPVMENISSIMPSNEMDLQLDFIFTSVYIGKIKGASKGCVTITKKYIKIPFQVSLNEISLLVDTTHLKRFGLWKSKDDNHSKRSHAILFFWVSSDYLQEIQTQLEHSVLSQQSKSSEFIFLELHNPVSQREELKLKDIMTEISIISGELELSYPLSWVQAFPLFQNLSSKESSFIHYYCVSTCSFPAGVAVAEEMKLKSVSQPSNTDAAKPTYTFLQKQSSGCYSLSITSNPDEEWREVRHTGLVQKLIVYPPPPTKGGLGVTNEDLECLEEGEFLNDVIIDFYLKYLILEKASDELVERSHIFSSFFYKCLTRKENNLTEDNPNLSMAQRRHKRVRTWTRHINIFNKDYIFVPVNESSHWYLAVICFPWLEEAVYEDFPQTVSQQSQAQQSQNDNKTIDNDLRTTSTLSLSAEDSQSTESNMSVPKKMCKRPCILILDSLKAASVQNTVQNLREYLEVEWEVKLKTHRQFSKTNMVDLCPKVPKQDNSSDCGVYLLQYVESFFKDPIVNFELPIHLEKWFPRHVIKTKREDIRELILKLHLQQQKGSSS

[12] = target: T5, Sentrin-specific protease 6 (Homo sapiens, UniProt Q9GZR1); type: functional;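 note: Luminescence-based dose-response confirmatory assay of SENP6 inhibition, following up an ultra-high-throughput screen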
T5 sequence (Q9GZR1 whole entry): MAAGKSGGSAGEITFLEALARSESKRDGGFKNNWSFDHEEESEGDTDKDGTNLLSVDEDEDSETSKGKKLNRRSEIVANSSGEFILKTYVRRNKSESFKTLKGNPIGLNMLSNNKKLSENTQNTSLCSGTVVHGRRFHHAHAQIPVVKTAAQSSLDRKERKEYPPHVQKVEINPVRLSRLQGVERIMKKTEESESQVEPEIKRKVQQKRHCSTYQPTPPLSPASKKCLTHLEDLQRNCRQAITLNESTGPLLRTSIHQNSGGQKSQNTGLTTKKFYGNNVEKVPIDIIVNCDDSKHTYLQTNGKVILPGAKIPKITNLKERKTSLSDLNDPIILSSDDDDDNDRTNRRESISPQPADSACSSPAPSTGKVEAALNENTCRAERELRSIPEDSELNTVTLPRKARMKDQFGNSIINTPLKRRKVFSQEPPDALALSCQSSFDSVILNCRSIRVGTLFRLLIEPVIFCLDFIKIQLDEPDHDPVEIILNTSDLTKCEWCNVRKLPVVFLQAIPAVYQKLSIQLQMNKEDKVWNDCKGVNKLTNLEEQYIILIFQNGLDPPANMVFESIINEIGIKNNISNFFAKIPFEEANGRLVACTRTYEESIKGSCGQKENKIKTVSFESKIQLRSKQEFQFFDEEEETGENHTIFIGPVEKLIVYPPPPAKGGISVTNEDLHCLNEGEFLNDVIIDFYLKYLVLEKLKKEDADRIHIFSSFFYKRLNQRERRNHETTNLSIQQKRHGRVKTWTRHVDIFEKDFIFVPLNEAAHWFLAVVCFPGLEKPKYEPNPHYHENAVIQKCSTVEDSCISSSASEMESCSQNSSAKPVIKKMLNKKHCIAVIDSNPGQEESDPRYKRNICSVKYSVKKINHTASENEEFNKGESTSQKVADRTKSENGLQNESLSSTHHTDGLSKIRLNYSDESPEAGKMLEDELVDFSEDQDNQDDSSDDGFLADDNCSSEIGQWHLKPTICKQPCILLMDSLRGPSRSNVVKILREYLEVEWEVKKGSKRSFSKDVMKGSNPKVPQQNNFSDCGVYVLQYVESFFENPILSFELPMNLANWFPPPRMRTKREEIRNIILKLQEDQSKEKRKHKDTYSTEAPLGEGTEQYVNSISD

[13] = target: T6, Sentrin-specific protease 8 (Homo sapiens, UniProt Q96LD8); type: functional
T6 sequence (Q96LD8 whole entry): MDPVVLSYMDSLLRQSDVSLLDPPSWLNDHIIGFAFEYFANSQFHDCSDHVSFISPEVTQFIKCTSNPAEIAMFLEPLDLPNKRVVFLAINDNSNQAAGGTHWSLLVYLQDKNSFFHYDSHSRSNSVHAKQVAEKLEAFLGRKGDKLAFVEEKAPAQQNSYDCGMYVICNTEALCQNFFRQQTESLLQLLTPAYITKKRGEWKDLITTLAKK

[14] = target: T6, Sentrin-specific protease 8; type: functional; remark: listed apart in the source
[15] = target: T6, Sentrin-specific protease 8; type: functional; remark: listed apart in the source
[16] = target: T7, Caspase-6 (Homo sapiens, UniProt P55212); assay: inhibition of CASP6 peptide cleavage – biochemical, VEID-R110 fluorescence, cherry-pick, dose response (AID 720632)
T7 sequence (P55212 whole entry): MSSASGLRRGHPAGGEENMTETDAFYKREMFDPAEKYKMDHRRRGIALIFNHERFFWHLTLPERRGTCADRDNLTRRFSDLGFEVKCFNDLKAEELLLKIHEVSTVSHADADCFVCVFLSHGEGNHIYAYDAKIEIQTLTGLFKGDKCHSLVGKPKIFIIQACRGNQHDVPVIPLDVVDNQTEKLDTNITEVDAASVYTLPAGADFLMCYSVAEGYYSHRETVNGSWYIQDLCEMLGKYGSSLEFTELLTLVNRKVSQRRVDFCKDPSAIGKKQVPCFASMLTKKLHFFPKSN

[17] = HGIII-sPLA2 enzyme inhibition potency – biochemical, QFRET, IC50, dose response (AID 743457);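 note: green fluorescence rise as the enzyme cleaves BODIPY PC-A2 in liposomes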
[18] = Trypanosoma cruzi growth suppression in host cells – NIH3T3 host cells, beta-gal luminescence, confirmation (AID 2044); type: functional, cell-based;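 note: intracellular parasites grown in NIH/3T3 mouse fibroblasts as host cells; luminescent beta-galactosidase reporter signal from transgenic T. cruzi replicating inside host cells; inhibitors lower the luminescence signal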
[19] = NIH3T3 cell viability loss – ATP luminescence, mouse fibroblasts, counter-screen, dose response (AID 2010); type: functional, cell-based;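 note: cells exposed to compound for about 90 hours before reading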
[20] = target: T8, Probable nicotinate-nucleotide adenylyltransferase (Staphylococcus aureus (strain N315), UniProt P65502); type: functional, Staphylococcus aureus subsp. aureus N315;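 for IC50 Mean: confirmatory dose-response retesting of NadD inhibitor hits first found in an ultra-high-throughput screen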
T8 sequence (P65502 whole entry): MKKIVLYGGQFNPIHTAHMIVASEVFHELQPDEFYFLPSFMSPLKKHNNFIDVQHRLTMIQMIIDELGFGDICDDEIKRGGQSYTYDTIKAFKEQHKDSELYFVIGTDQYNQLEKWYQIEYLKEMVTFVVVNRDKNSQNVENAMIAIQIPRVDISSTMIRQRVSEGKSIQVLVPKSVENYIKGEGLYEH

[21] = target: T8, Probable nicotinate-nucleotide adenylyltransferase; type: functional, Staphylococcus aureus subsp. aureus N315; conditions: read-out: IC50_Mean
[22] = target: T9, Sentrin-specific protease 1 (Homo sapiens, UniProt Q9P0U3); assay: SENP1 catalytic domain blockers, concentration series – biochemical, kinetic FRET, dose response (AID 651697); type: functional; conditions: read-out: IC50_Mean
T9 sequence (Q9P0U3 whole entry): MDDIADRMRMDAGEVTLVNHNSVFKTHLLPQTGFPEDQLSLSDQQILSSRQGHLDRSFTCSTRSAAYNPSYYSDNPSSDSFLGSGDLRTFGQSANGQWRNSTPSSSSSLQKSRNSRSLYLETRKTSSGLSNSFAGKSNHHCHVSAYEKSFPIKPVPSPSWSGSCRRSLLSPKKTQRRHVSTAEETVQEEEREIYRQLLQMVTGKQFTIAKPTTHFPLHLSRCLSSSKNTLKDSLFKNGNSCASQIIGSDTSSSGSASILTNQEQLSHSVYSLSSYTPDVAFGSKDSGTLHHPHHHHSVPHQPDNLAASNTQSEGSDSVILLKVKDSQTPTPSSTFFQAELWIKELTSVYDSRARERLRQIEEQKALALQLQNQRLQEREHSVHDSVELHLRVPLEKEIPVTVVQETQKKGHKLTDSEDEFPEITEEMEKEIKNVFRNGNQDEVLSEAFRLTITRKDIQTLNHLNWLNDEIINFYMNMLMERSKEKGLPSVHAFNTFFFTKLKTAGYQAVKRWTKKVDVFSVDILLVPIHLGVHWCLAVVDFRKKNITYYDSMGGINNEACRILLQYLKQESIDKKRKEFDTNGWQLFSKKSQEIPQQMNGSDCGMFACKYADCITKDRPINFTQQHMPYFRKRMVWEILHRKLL

[23] = target: T9, Sentrin-specific protease 1; assay: Dose response confirmation of small molecule inhibitors of the catalytic domain of the SUMO protease, SENP1 in a FRET assay.; type: functional; conditions: read-out: IC50_Mean

Chain of Albumin (P02769 whole entry, the tested form may be a part): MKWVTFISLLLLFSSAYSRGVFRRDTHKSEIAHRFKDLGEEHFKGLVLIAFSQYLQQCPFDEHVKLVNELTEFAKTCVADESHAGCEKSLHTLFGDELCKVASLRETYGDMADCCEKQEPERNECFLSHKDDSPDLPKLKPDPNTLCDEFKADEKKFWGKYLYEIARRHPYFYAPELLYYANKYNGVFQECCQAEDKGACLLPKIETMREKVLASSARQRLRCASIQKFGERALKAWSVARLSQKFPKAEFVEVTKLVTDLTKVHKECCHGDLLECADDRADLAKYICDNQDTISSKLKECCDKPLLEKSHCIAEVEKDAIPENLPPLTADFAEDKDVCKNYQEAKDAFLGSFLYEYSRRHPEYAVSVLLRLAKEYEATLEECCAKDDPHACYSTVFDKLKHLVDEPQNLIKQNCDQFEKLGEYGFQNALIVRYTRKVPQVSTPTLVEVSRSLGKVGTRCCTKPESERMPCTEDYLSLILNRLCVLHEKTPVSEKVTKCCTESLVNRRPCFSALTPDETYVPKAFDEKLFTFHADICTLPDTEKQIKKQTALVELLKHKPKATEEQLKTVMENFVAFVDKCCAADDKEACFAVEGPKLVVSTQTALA

Cc1ccccc1C(=O)NNC(=S)NC(=O)c1cccnc1
IC50 [1]: > 94.1 µM (inactive)

Cc1ccn2cc(-c3ccc(O)c(O)c3)nc2c1
EC50 [2]: 38 µM (active) | EC50 [3]: > 350 µM (not active) | EC50 [4]: 6.88 µM (active) | IC50 [5]: 12.9 µM (active) | EC50 [6]: 6.58 µM (active) | AC50 [7]: 0.558 µM (active) | AC50 [8]: 2.44 µM (active) | AC50 [9]: 13 µM (active) | IC50 [1]: > 94.1 µM (inactive)

Cc1ccccc1N1C(=O)Cc2ccccc2C1=O
IC50 [10]: 3.55 µM (active) | IC50 [11]: 23.8 µM (active) | IC50 [12]: 8.06 µM (active) | IC50 [13]: 45.7 µM (active) | IC50 [14]: > 100 µM (inactive) | IC50 [15]: 3.22 µM (active) | AC50 [16]: 27.4 µM (active)

O=C(NNC(=O)c1ccc2ccccc2c1O)Nc1ccc(F)cc1
IC50 [1]: > 94.1 µM (inactive) | IC50 [17]: > 122 µM (inactive)

Cc1c(C(=O)N2CC3(CC(c4cccc(NC(=O)CC(c5ccccc5)c5ccccc5)c4)=NO3)C[C@@H]2C(N)=O)cc([N+](=O)[O-])cc1[N+](=O)[O-] (some centres undefined)
EC50 [18]: 1.05 µM (active) | EC50 [19]: > 60 µM (not active) | IC50 [20]: 16.8 µM (active) | IC50 [21]: 38.4 µM (active)

COc1ccc(Nc2cc(C)nc3ncnn23)cc1Cl
IC50 [22]: 40.8 µM (inactive) | IC50 [23]: 19.6 µM (active)

O=C(Nc1ccc(S(=O)(=O)Nc2nccs2)cc1)c1cccc(N2C(=O)c3ccccc3C2=O)c1
IC50 [20]: 9.8 µM (active) | IC50 [21]: 38.2 µM (active)

O=C(Nc1cc2c(cc1Cl)-c1ccc([N+](=O)[O-])cc1C2=NO)C(F)(F)F
IC50 [22]: 12.5 µM (active) | IC50 [23]: 2.89 µM (active)
